Where two headings read alike, the source gives them in different places.
Assays:
viral PR = viral PR (Human immunodeficiency virus type 1 group M subtype B, UniProt P04585); format: biochemical; settings: RNA of HIV-1 infected cultured cells, increased concentrations of saquinavir, FIG. 8
Experimental: (§1) The antibody-functionalized electrode was interacted with varying concentrations of the Gag polyprotein generated in the translation mixture for 60 min. diluted to 1.0 mL in phosphate-buffered saline (PBS) solution, 0.1 M, pH 7.0, at room temperature. After attachment of the respective polyprotein to the sensing interface, the electrode was incubated in the solution of anti-MA or anti-CA (sources were 200-fold diluted) for 30 min at room temperature. After attachment to the respective antibody, the electrode was incubated either in a goat-anti-rabbit-HRP conjugate solution (2.5 μg·mL^−1), for the MA analysis, or in a goat-anti-mouse-HRP conjugate solution (2.5 μg·mL^−1) for the CA analysis, for 30 minutes at room temperature. 4-Chloro-1-naphthol (1) (FIG. 1D) was dissolved initially in ethanol and then the ethanolic stock solution was diluted with 0.1 M phosphate buffer, pH 7.0, to yield the developing solution that included 1×10^−3 M (1) and 2% (v/v) ethanol. The modified electrodes consisting of the HRP-tagged antibody-functionalized electrodes were incubated in the developing solution of (1) for a fixed and controlled time of 10 minutes at room temperature to stimulate the precipitation of (2) (FIG. 1D).
All the RNA preparations were translated in vitro using the “Biotin in vitro translation kit” (Roche 1559951) in the absence or presence of Saquinavir (Ro 31-8959). […]

[1] = biological target: protease encoded by the wild-type viral RNA (HIV-1 PR) (Human immunodeficiency virus type 1 group M subtype B, UniProt P04585); format: biochemical
Experimental: (§2) A conventional three electrode cell, consisting of the modified Au electrode, a glassy carbon auxiliary electrode isolated by a glass frit, and a saturated calomel electrode (SCE) connected to the working volume with a Luggin capillary, was used for the electrochemical measurements. The cell was positioned in a grounded Faradaic cage. Impedance measurements were performed using an electrochemical impedance analyzer (EG&G, model 1025) and potentiostat (EG&G, model 283) connected to a computer (EG&G Software Power Suite 1.03 and 270 for impedance measurements). All electrochemical measurements were performed in 0.1 M phosphate buffer, pH 7.0, as a background electrolyte solution. Faradaic impedance measurements were performed in the presence of 10 mM K3[Fe(CN)6]/K4Fe(CN)6] (1:1) mixture, as a redox probe. Impedance measurements were performed at a bias potential of 0.17 V versus SCE using alternating voltage, 10 mV, in the frequency range of 100 mHz to 10 kHz. The impedance spectra were plotted in the form of complex plane diagrams (Nyquist plots).
The antibody-functionalized electrode was interacted with varying concentrations of the Gag polyprotein generated in the translation mixture for 60 min. diluted to 1.0 mL in phosphate-buffered saline (PBS) solution, 0.1 M, pH 7.0, at room temperature. […]

G48V mutated PR = biological target: T1, G48V mutated PR (Human immunodeficiency virus type 1 group M subtype B, UniProt P12497, G536V); assay: Four-path impedance analysis (FIG. 5) of proteins translated from RNA of the HIV-1 G48V mutant; format: biochemical, HIV-1 (NL4-3)
T1 construct: a virus encoded protease (PR) which is one of the individual proteins making up the uncleaved polyprotein; made in house; host or cells: cell-free in vitro translation (Biotin in vitro translation kit, Roche 1559951) of RNA from the media of cultured cells infected with HIV-1 G48V
Experimental: as §2
as §1, with “The modified electrodes consisting of the HRP-tagged antibody-functionalized electrodes were incubated in the developing solution of (1) for a fixed and controlled time of 10 minutes at room temperature to stimulate the precipitation of (2) (FIG. 1D).” left out

AIDS patients = settings: cited from earlier work
[2] = biological target: T2, HIV-1 viral protease (PR) (Human immunodeficiency virus type 1 group M subtype B, UniProt P04585); format: biochemical
Experimental: as §1
(§3) After incubation of the respective electrodes in the probe solution, the electrodes were rinsed with 0.1 M phosphate buffer, pH 7.0, and introduced into the electrochemical cell for their analyses by Faradaic impedance spectroscopy. It should be noted that after each step the electrode was rinsed thoroughly with buffer solution, pH 7.0, to eliminate any non-specific adsorbates on the electrode. In the microgravimetric quartz crystal microbalance measurements, the various modification and amplification steps, including the rinsing steps, were performed in the flow cell of the QCM apparatus.
(§4) All the RNA preparations were translated in vitro using the “Biotin in vitro translation kit” (Roche 1559951) in the absence or presence of Saquinavir (Ro 31-8959). Reactions were performed in 50 μL, according to the manufacturer's instructions, using DEPC-treated water. The PR inhibitor Saquinavir was dissolved in 1M NaCl in the DEPC-treated water, and was added to reaction mixtures before starting the synthesis.

[3] = tested on: viral PR from patients' plasma HIV RNA; assay: Four-path impedance analysis (FIG. 5) of RNA extracted from blood samples of AIDS patients treated with saquinavir; format: biochemical; settings: for α = Ret^B(1)/Ret^A(1): CA units, anti-CA; for β = Ret^B(2)/Ret^A(2): MA units, anti-MA, β≈1.0 drug resistant, β<1 drug sensitive
Experimental: Plasma was obtained from consenting donors following removal of blood cells by centrifugation for 5 minutes at 3,000 rpm. The plasma was 3-fold diluted with PBS, and viral particles were peletted by centrifuging the volume for 45 minutes at 45,000 rpm in a Backman centrifuge (SW 50.1 rotor). The viral pellets were suspended in 1 mL TRIzol reagent (Gibco BRL) containing 5-10 μg of tRNA (Sigma) as carrier and RNA was extracted according to the manufacturer's instructions.
All the RNA preparations were translated in vitro using the “Biotin in vitro translation kit” (Roche 1559951) in the absence or presence of Saquinavir (Ro 31-8959). Reactions were performed in 50 μL, according to the manufacturer's instructions, using DEPC-treated water. The PR inhibitor Saquinavir was dissolved in 1M NaCl in the DEPC-treated water, and was added to reaction mixtures before starting the synthesis. The reaction mixtures were incubated for 90 min at 30° C. and the reactions were halted by placing in ice or storage at −75° C. until further use in the electrochemical measurements.
An extracted RNA specimen 100 is subdivided into two samples, A 102 and B 104. While sample A is subjected to in vitro translation in the presence of the PI, sample B is translated in the absence of the PI. Each of the translation mixtures is then further divided into two equal sub-samples, sample A into sub-samples A(1) 106 and A(2) 108, and sample B into sub-samples B(1) 110 and B(2) 112. The sub-samples A(1) and B(1) are subjected to the analysis of the total CA units using anti-CA, according to FIG. 1B, route (ii). The sub-samples A(2) and B(2) utilize the anti-MA antibody to assess content of polyprotein in the respective samples, according to FIG. 1A and FIG. 1B, route (i). Note that the ratio of the interfacial electron transfer resistances generated upon the precipitation of the precipitate (20) in sub-samples A(2) and B(2) reflect the content of polyprotein generated under PR inhibition vs. the unprocessed (=unhydrolyzed) polyprotein in the system.
The ratio of electron transfer resistances of paths A(1) and B(1) should be independent of the PI, and its value should be ≈1. This ratio provides an internal standard for the effectiveness of translations in the entire set of experiments. Thus, the four-path analysis scheme of the mRNA translation processes eliminates the background signal of unprocessed polyproteins in the absence of the inhibitor. The assay also abrogates the difference in the affinities of anti-CA and anti-MA to the respective antigens. Since the original sample is subdivided into equivalent sub-samples prior to translations, the problem of different RNA contents in analysis paths is cancelled out.
The analysis scheme outlined in FIG. 5 was applied to detect drug resistance in AIDS patients, treated with saquinavir. In this process, we expect that the analysis of the CA-units by the anti-CA antibodies will lead to an electron transfer resistance ratio of paths A(1) 106 and B(1) 110 in FIG. 5, that corresponds to α=Ret^B(1)/Ret^A(1)≈1.0 whereas the ratio of electron transfer resistance analyzing the MA-units with the anti-MA antibody of paths B(2) 112 and A(2) 108 in FIG. 5 should reveal the value β=Ret^B(2)/Ret^A(2)≈1.0 for drug resistant patients, and β<1 for drug sensitive patients.

[4] = biological target: T2, HIV-1 viral protease (PR); format: biochemical; settings: for interfacial electron transfer resistance Ret after biocatalyzed precipitation of (20) (curve f): translation in the presence of saquinavir 1×10^−4 M, 10 min precipitation, non-inhibited mixture 2500 Ω
Experimental: as §2
The electrodes were rinsed with water, dried, and soaked in a 10 mM solution of the DSP-active ester in DMSO for 30 min at room temperature. The functionalized electrodes were rinsed with DMSO and water and incubated in a 100 μg·m]L^−1 solution of protein G, for 90 min in a phosphate buffer saline solution, pH=7.4, at room temperature, to couple covalently protein G lysine residues to the functionalized electrodes. The protein G-functionalized electrodes were then allowed to interact with the Fc fragment of the anti-CA-antibody, 1 μg·mL^−1, 30 min at room temperature, to yield the sensing interfaces.
as §1, §3, §4

[5] = translation of bacterial RNA in the presence of saquinavir 1×10^−4 M

CC(C)(C)NC(=O)[C@@H]1C[C@@H]2CCCC[C@@H]2CN1C[C@@H](O)[C@H](Cc1ccccc1)NC(=O)[C@H](CC(N)=O)NC(=O)c1ccc2ccccc2n1 [saquinavir]
interfacial electron transfer resistance as the concentration of the inhibitor increases (viral PR): enhanced
ratio Ret^B(2)/Ret^A(2) [1]: 0.43
electron transfer resistance Ret, path A(2), anti-MA analysis (curve d) ([1]; wild type virus, saquinavir 1×10^−4 M, non-inhibited path B(2) Ret=6): 14 kω
effect of the inhibitor on the protease activity (G48V mutated PR): no effect of the inhibitor is observed
interfacial resistance Ret, path A(2) with the inhibitor (curve d) (G48V mutated PR; identical to path B(2) without inhibitor): ≈ 11 kΩ
ratio Ret^B(2)/Ret^A(2) (G48V mutated PR; without vs with inhibitor): 1
clinical condition under treatment (AIDS patients; all other patients (#1, #3, #4), subjective statements of the physicians): balanced conditions
clinical response to treatment (AIDS patients; patients #2 and #5, subjective statements of the physicians): did not react to the treatment
Anti-MA Δf [2]: −80 Hz
Anti-anti MA/HRP Δf [2]: −140 Hz
Precipitation of (2) Δf [2]: −100 Hz
frequency change upon treatment of the surface with the translated proteins [2]: −50 Hz
α = Ret^B(1)/Ret^A(1) ([3]; Patient # 1): 1.17 ± 0.03
β = Ret^B(2)/Ret^A(2) ([3]; Patient # 1): 0.87 ± 0.04
α = Ret^B(1)/Ret^A(1) ([3]; Patient # 2): 1.07 ± 0.03
β = Ret^B(2)/Ret^A(2) ([3]; Patient # 2): 1.1 ± 0.04
α = Ret^B(1)/Ret^A(1) ([3]; Patient # 3): 1.04 ± 0.03
β = Ret^B(2)/Ret^A(2) ([3]; Patient # 3): 0.75 ± 0.04
α = Ret^B(1)/Ret^A(1) ([3]; Patient # 4): 1.10 ± 0.03
β = Ret^B(2)/Ret^A(2) ([3]; Patient # 4): 0.79 ± 0.04
α = Ret^B(1)/Ret^A(1) ([3]; Patient # 5): 1.0 ± 0.03
β = Ret^B(2)/Ret^A(2) ([3]; Patient # 5): 1.07 ± 0.04
ΔRet upon precipitation, non-inhibited mixture lower than inhibited translation mixture ([4]; identical quantities of mRNA, absence vs presence of Saquinavir): 4 fold
increase in interfacial electron transfer resistance ΔRet upon the precipitation of (20) ([4]; inhibited translation mixture, non-inhibited mixture ΔRet=500 Ω): ≈ 2000 Ω
interfacial electron transfer resistance Ret after biocatalyzed precipitation of (20) (curve f) [4]: 5000 Ω
interfacial electron transfer resistance Ret after biocatalyzed precipitation of (20) (curve f) ([4]; listed as Saquinavir): ca. 5100 Ω
electron transfer resistance Ret after addition of anti-anti-MA-HRP conjugate (curve e) [4, 5]: 3000 Ω
interfacial electron-transfer resistance Ret after association of anti-MA-Ab (curve d) [4, 5]: 2800 Ω
interfacial electron-transfer resistance after binding of the Gag polyprotein to anti-CA-Ab (curve c) [4, 5]: 2100 Ω
